The term TGI denotes the concentration giving total growth inhibition. The low end stands for greater sensitivity of the cells, the high end for lower sensitivity of the cells. As a reminder, the GI50 is the concentration that inhibits growth by half.

What all share (test): DTP human tumour cell line panel, 48 h
Assay [1] concerns MCF7 breast.
For assay [2], the system named is UACC-62 melanoma.
For assay [3], the system named is NCI-H460 lung.
Assay [4] relates to SN12C renal.
The test system of assay [5] is U251 CNS.
Assay [6] concerns SF-295 CNS.
The test system of assay [7] is 786-0 renal.
Assay [8] has as its system IGROV1 ovarian.
In assay [9] the test system is HCT-15 colon.
Assay [10] concerns HL-60(TB) leukemia.

Structures are written as SMILES. “And” between values parts separate entries of the source, which are not always exact repeats. Equal values may be shown once.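 Assay format: 96-well plates, 48-hour exposure. GI50 is the concentration that inhibits growth by half. TGI: total growth inhibition.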

For the molecule `COc1cc(-c2oc3ccccc3c(=O)c2O)cc(OC)c1OC`, the TGI in assay [1], in [2], in assay [3], in assay [4], in [5] and in assay [6] was greater than 100 µM in each case. The TGI is 41.6 µM in assay [7], greater than 100 µM in assay [8], greater than 100 µM in assay [9] and greater than 28.1 µM in assay [10].
Consider `Cc1cccc(NC(=O)c2sc3nc4c(cc3c2N)CCCC4)c1C`, for which the GI50 in [1] is 0.339 µM; in [2], 0.533 µM; in assay [3], 0.369 µM; in assay [4], 0.61 µM; in assay [5] it was 0.416 µM; in [6], 0.516 µM. The GI50 in assay [7] was 0.532 µM; in assay [8] it was 0.547 µM; in assay [9], 0.363 µM; in assay [10], 0.266 µM. Besides, the TGI in assay [1], in [2], in assay [3], in [4], in assay [5] and in assay [6] was greater than 100 µM in each case. Further, the total growth inhibition concentration (TGI) in assay [7] is greater than 100 µM; in [8], greater than 100 µM; in assay [9], greater than 100 µM; in assay [10], 0.941 µM.
As for `N#CC(C#N)SCc1ccccc1`, the TGI was greater than 100 µM in assay [1]; greater than 93.1 µM in assay [2]; greater than 41.6 µM in assay [3]; greater than 100 µM in assay [4]; 56.6 µM in [5]; greater than 100 µM in assay [6]. Further, the TGI in assay [7] was greater than 100 µM; in assay [8] it was greater than 100 µM; in assay [9], greater than 92 µM; in [10] it was 14.7 µM.
Consider `S=C(N/N=C/c1cc(Cl)cc(Cl)c1)NC12CC3CC(CC(C3)C1)C2`, for which the GI50 in assay [1] was greater than 82.3 µM; in assay [2] it was 10.2 µM; in assay [3], 2.66 µM; in assay [5] it was 3.18 µM; in [6], 3.92 µM; in assay [7], 8.63 µM. For the same molecule, the GI50 is 8.8 µM in assay [8], greater than 56.6 µM in [9] and greater than 100 µM in [10]. Moreover, the TGI in [1] was greater than 100 µM; in assay [2], greater than 100 µM; in assay [3], greater than 100 µM; in assay [4], greater than 100 µM; in [5], greater than 33.6 µM; in [6] it was greater than 24.5 µM. Also, the TGI in assay [7], in assay [8], in assay [9] and in [10] was greater than 100 µM each time.
Turning to `Cc1ccc(C(=O)Nc2ccc(CN3CCN(C)CC3)c(C(F)(F)F)c2)cc1C#Cc1cnc(N)c2ccc(F)cc12`, the GI50 in [1] was 0.441 µM; in assay [2], 0.329 µM; in assay [3], 0.232 µM; in assay [4], 0.0793 µM; in assay [5], 0.275 µM; in assay [6], 0.633 µM. Moreover, the GI50 in assay [7] is 0.305 µM; in [8], 0.0575 µM; in assay [9] it was 0.112 µM; in assay [10], 0.198 µM. The total growth inhibition concentration (TGI) was found to be 0.861 µM in [1]; 1.02 µM in assay [2]; 0.647 µM in [3]; 0.73 µM in assay [4]; 0.717 µM in [5]; 2.34 µM in assay [6]. Moreover, the TGI came out at 0.731 µM in [7], 0.501 µM in assay [8], 0.456 µM in assay [9] and 1.35 µM in assay [10].
As for `COC(=O)C1=C(OC(=O)c2ccc(Cl)cc2)C(C(=O)OC)[C@@]2(O)[C@@H](C(=O)OC)C(c3ccccc3C(F)(F)F)C[C@@H]1[C@@H]2C(=O)OC` (some centres undefined), the GI50 in assay [1] was 10.7 µM; in [2], 1.8 µM; in [3], 6.53 µM; in assay [4], 2.08 µM; in assay [5] it was 3.26 µM; in assay [7], 4.86 µM. In addition, the GI50 in [9] was 2.87 µM. The TGI was 87.5 µM in assay [1]; 3.65 µM in [2]; 77.1 µM in assay [3]; 6.66 µM in [4]; 21.4 µM in assay [5]; greater than 100 µM in assay [7]. The same molecule showed a TGI in [9] of 14.6 µM.
As to `CC(=O)c1cccc(N(/C=C/C(=O)C(F)(F)F)CC(=O)c2ccc(Cl)cc2)c1`, the GI50 in [1], in [2], in assay [3], in assay [4], in [5] and in [6] was greater than 100 µM each time. Further, the GI50 in assay [7], in assay [8] and in assay [9] was greater than 100 µM in each case. For the same molecule, the TGI in assay [1], in [2], in assay [3], in [4], in assay [5] and in [6] was greater than 100 µM throughout. In addition, the TGI in assay [7], in [8] and in assay [9] was greater than 100 µM each time.
With `C=C1C(=O)O[C@@H]2C[C@@]3(C)CC(=O)C=C(C)[C@@H]3C[C@H]12`, the TGI is 14.9 µM in [1]; 30.4 µM in assay [2]; 26.2 µM in [4]; 39.1 µM in assay [5]; greater than 100 µM in assay [6]; 31.5 µM in assay [7]. Further, the TGI in [8] stood at 32.2 µM; in assay [9], 15.2 µM; in [10], 4.08 µM.
As for `Clc1ccccc1NN(Cc1ccccn1)c1ccccc1Cl`, the TGI was greater than 100 µM in [1]; 43.8 µM in [2]; 33.3 µM in [4]; 29.6 µM in [5]; 71.4 µM in assay [6]; 31.6 µM in [7]. Further, the total growth inhibition concentration (TGI) in assay [8] is 42.2 µM; in [9], greater than 100 µM; in assay [10] it was 44 µM.
Take `C[C@]12CC[C@@H]3c4ccc(O)c([N+](=O)[O-])c4CC[C@H]3[C@@H]1CC[C@@H]2NS(=O)(=O)c1ccc(C(F)(F)F)cc1`: the GI50 in [1] was 1.91 µM; in assay [2] it was 1.34 µM; in assay [3], 2.11 µM; in [4] it was 1.6 µM; in assay [5], 1.56 µM; in assay [6], 2.96 µM. In addition, the GI50 was 2.05 µM in assay [7], 2.12 µM in assay [8] and 1.71 µM in assay [9]. The concentration for total growth inhibition (TGI) stood at 4.23 µM in [1]; 2.78 µM in assay [2]; 4.83 µM in assay [3]; 3.1 µM in assay [4]; 3.13 µM in assay [5]; 10.6 µM in assay [6]. The TGI was 4.35 µM in assay [7], 4.68 µM in assay [8] and 3.58 µM in [9].
As for `COc1ccc(OC)c(-c2cc(-c3ccccc3)nn2-c2ccc(S(=O)(=O)NC(C)=O)cc2)c1`, the GI50 in assay [1] was 2.38 µM; in assay [2], 10.9 µM; in [3], 13.2 µM; in assay [4], 13.2 µM; in assay [6] it was 16.1 µM; in assay [7] it was 10.8 µM. The GI50 in [8] was 27.4 µM; in [9], 3.72 µM; in assay [10], 28 µM. Also, the TGI in assay [1] was greater than 100 µM; in assay [2], 22.9 µM; in assay [3], greater than 100 µM; in [4] it was 26.2 µM; in [6], 35.1 µM; in assay [7], 23.4 µM. Further, the total growth inhibition concentration (TGI) is greater than 100 µM in [8], 10.2 µM in assay [9] and greater than 100 µM in [10].
For the molecule `CC(CO)[C@H]1OC(=O)C=C2[C@@]13O[C@@H]3[C@H]1OC(=O)[C@@]3(C)[C@H]4O[C@H]4C[C@@]2(C)[C@@H]13` (some centres undefined), the total growth inhibition concentration (TGI) in [1] was 8.05 µM; in assay [2], 7.36 µM; in [3] it was greater than 24.4 µM; in assay [4], 13.6 µM; in assay [5], greater than 100 µM; in assay [6] it was greater than 33.4 µM. In addition, the values for the TGI in assay [7], in assay [8] and in assay [9] were greater than 28.1 µM, 12 µM and greater than 31 µM, respectively.
On to `Cc1cc2c(C(C)C)c(O)c(O)c(C=Nc3cc(C(F)(F)F)ccc3Cl)c2c(O)c1-c1c(C)cc2c(C(C)C)c(O)c(O)c(C=Nc3cc(C(F)(F)F)ccc3Cl)c2c1O`, for which the TGI in assay [1] is 71.4 µM; in assay [2] it was 51.8 µM; in assay [3], greater than 100 µM; in assay [4], greater than 100 µM; in [5], 72.2 µM; in assay [7], greater than 100 µM. The TGI in assay [8] was 75 µM; in assay [9], greater than 100 µM; in assay [10], 78.5 µM.
As to `COc1cc(-c2csc(NC(=O)c3cc(C(F)(F)F)cc(C(F)(F)F)c3)n2)cc(OC)c1OC`, the GI50 in assay [1] is 2.16 µM; in assay [3], 2.97 µM; in assay [4] it was 2.78 µM; in assay [5] it was 2.7 µM; in assay [6], 2.27 µM; in assay [7] it was 3.16 µM. Further, the results for the GI50 in assay [8], in assay [9] and in assay [10] were 4.37 µM, 2.71 µM and 2.07 µM, respectively. For the same molecule, the TGI in assay [1] is greater than 100 µM; in [3], greater than 100 µM; in assay [4], greater than 100 µM; in assay [5], greater than 100 µM; in assay [6], 14.7 µM; in assay [7], greater than 100 µM. The TGI in [8] was greater than 100 µM; in assay [9] it was greater than 100 µM; in assay [10], 6.18 µM.
Regarding `O=C(CCc1nc(=S)[nH][nH]1)NC12CC3CC(CC(C3)C1)C2`, the TGI in assay [2], in [3], in assay [4], in assay [5], in assay [6] and in assay [7] was greater than 100 µM each time. In addition, the TGI in [8], in assay [9] and in assay [10] was greater than 100 µM throughout.
Turning to `COc1cc(C2c3cc4c(cc3[C@@H](Nc3ccc(N(C)C)cc3)[C@H]3COC(=O)C23)OCO4)cc(OC)c1O` (some centres undefined), the GI50 was 0.347 µM in [2]; less than 0.0075 µM in [3]; 0.453 µM in assay [4]; 0.195 µM in [5]; 0.223 µM in assay [6]; 0.362 µM in [7]. Besides, the GI50 in [8] was 4.57 µM; in assay [9], 1.82 µM. Further, the total growth inhibition concentration (TGI) was 1.53 µM and 2.28 µM in assay [2]; 1.88 µM and 10.4 µM in assay [3]; 2.41 µM and 3.64 µM in [4]; 1.33 µM and 3.37 µM in assay [5]; 0.483 µM and 1.47 µM in [6]; 1.37 µM and 4.91 µM in [7]. Also, the TGI is 14.7 µM and 19.9 µM in assay [8]; 8.16 µM and 11.3 µM in assay [9]; 2.51 µM in [10].
In the case of `CC1(C)C(=O)C(O)=CC2C1=CCC1C2(C)C(=O)CC2(C)C(C(C)(O)C(=O)CC(O)C(C)(C)O)C(O)CC12C` (centres undefined), the TGI in [2] was 29.7 µM; in assay [3], 56.5 µM; in [4], greater than 90.4 µM; in assay [5], 7.58 µM; in [6], 13.1 µM; in assay [7], 5.65 µM. Further, the values for the TGI in assay [8], in assay [9] and in assay [10] were 7.1 µM, greater than 88.7 µM and 11.6 µM, respectively.
Turning to `COc1ccc(-n2nnc3c(sc4ccccc43)c2=O)cc1`, the GI50 in [1] was greater than 100 µM; in assay [2] it was greater than 100 µM; in [7] it was 3.61 µM; in [9], greater than 100 µM; in assay [10], greater than 100 µM. Also, the TGI in assay [1], in [2], in assay [7], in assay [9] and in [10] was greater than 100 µM throughout.
For `Cc1nc2c(n1CC(C)(C)C)C(=O)c1ccccc1C2=O`, the TGI in [2], in assay [3], in assay [4], in [5], in assay [6] and in [7] was greater than 100 µM each time. For the same molecule, the TGI in assay [8], in [9] and in assay [10] was greater than 100 µM each time.
With `CCc1ccccc1NC(=O)C(=O)C(C(=O)c1ccc(OC)cc1)c1ccc(OC)cc1` (centres undefined), the total growth inhibition concentration (TGI) in assay [2], in [3], in assay [4], in assay [5], in assay [6] and in assay [7] was greater than 100 µM throughout. Also, the TGI in [8], in assay [9] and in [10] was greater than 100 µM in each case.

Values taken from PubChem BioAssay (NCI).
